# Experiments:
# Assay in all cases: Antifungal activity assay, mycelial growth inhibitory rate method
# Type in all cases: cell-based
# [1] = system: Botrytis sp.; conditions: for inhibition of growth at 100 µg/mL: 100 μg/mL in PDA medium, 28° C., 48-72 h, read-out: Average values of antifungal rate (%) B.s.; for IC50: mycelial growth, PDA medium, 100-0.0488 μg/mL
# Description: (§1) The antifungal activities were evaluated against seven plant phytopathogenic fungi, by the mycelial growth inhibitory rate method, according to a reported method (Yu-Bin Bai, Meng Zhang, Ding Li, Yu Zhao, Liang-Zhu Huang, and Jin-Ming Gao. J. Agric. Food. Chem., 2023, 71, 16, 6236-6248). The target phytopathogenic fungi are Cytospora sp., Alternaria solani Sorauer, Alternaria alternate, Botrytis sp., Botrytis cinerea Pers., Colletotrichum gloeosporioides and Botryosphaeria dothidea. 100 μg/mL PDA mediums were prepared at 50° C. The petri dishes were incubated and cultivated at 28° C. for 48-72 h. Each sample was measured in triplicate, each colony diameter of all triplicates was measured 4 times by cross bracketing method. Hymexazol (Hym) as the positive control and the result of inhibition rate was calculated according to the formula: [formula] • where C represents the diameter of fungal growth on untreated PDA, and T represents the diameter of fungal growth on treated PDA. […] PDA mediums with different compound concentrations (100, 50, 25, 12.5, 6.25, 3.125, 1.5625, 0.78125, 0.3906, 0.1953, 0.0977, 0.0488 μg/mL) was prepared and their half inhibitory concentration (IC50) values were accurately tested. All half inhibitory concentration results are shown in Table 2 and Hymexazol (Hym) as the positive control.
# [2] = system: Botryosphaeria dothidea; conditions: for inhibition of growth at 100 µg/mL: 100 μg/mL in PDA medium, 28° C., 48-72 h, read-out: Average values of antifungal rate (%) B.d.; for IC50: mycelial growth, PDA medium, 100-0.0488 μg/mL
# Description: as §1
# [3] = system: Alternaria solani Sorauer; conditions: for inhibition of growth at 100 µg/mL: 100 μg/mL in PDA medium, 28° C., 48-72 h, read-out: Average values of antifungal rate (%) A.s.; for IC50: mycelial growth, PDA medium, 100-0.0488 μg/mL
# Description: as §1
# [4] = system: Colletotrichum gloeosporioides; conditions: for inhibition of growth at 100 µg/mL: 100 μg/mL in PDA medium, 28° C., 48-72 h, read-out: Average values of antifungal rate (%) C.g.; for IC50: mycelial growth, PDA medium, 100-0.0488 μg/mL
# Description: as §1
# [5] = system: Botrytis cinerea Pers.; conditions: for inhibition of growth at 100 µg/mL: 100 μg/mL in PDA medium, 28° C., 48-72 h, read-out: Average values of antifungal rate (%) B.c.; for IC50: mycelial growth, PDA medium, 100-0.0488 μg/mL
# Description: as §1
# [6] = system: Cytospora sp.; conditions: for inhibition of growth at 100 µg/mL: 100 μg/mL in PDA medium, 28° C., 48-72 h, read-out: Average values of antifungal rate (%) C.s.; for IC50: mycelial growth, PDA medium, 100-0.0488 μg/mL
# Description: as §1
# [7] = system: Alternaria alternate; conditions: for inhibition of growth at 100 µg/mL: 100 μg/mL in PDA medium, 28° C., 48-72 h; for IC50: mycelial growth, PDA medium, 100-0.0488 μg/mL
# Description: as §1
Compound,inhibition of growth at 100 µg/mL [1],IC50 [1],inhibition of growth at 100 µg/mL [2],IC50 [2],inhibition of growth at 100 µg/mL [3],IC50 [3],inhibition of growth at 100 µg/mL [4],IC50 [4],inhibition of growth at 100 µg/mL [5],IC50 [5],inhibition of growth at 100 µg/mL [6],IC50 [6],inhibition of growth at 100 µg/mL [7],IC50 [7]
"COC1=CC(=O)C[C@@H](C)[C@]12Oc1c(Cl)c(OC)cc(OCc3ccc(C(C)=O)cc3)c1C2=O [Compound 08, 4 Position 1-(4-(Methyl)Phenyl)-Ethanone Griseofulvin Derivative]",47.6%,> 100 µg/mL,4.7%,> 100 µg/mL,0%,> 100 µg/mL,26%,> 100 µg/mL,43.1%,> 100 µg/mL,7.43%,> 100 µg/mL,2.59%,> 100 µg/mL
"Cc1cc(O)no1 [Hym, Hymexazol, reference compound]",92.5%,13.5 ± 1.89 µg/mL,55.6%,> 50 µg/mL,97.4%,45.3 ± 14 µg/mL,43.2%,> 100 µg/mL,100%,> 6.25 µg/mL,48%,> 100 µg/mL,92.6%,15.58 ± 0.13 µg/mL
"COC1=CC(=O)C[C@@H](C)[C@]12Oc1c(Cl)c(OC)cc(OCc3ccsc3)c1C2=O [Compound 07, 4 Position 3-Methylthiophene Griseofulvin Derivative]",73.8%,17.6 ± 0.27 µg/mL,42.3%,> 50 µg/mL,62.3%,> 50 µg/mL,72.4%,3.82 ± 0.09 µg/mL,59.7%,> 25 µg/mL,54.7%,> 50 µg/mL,43.1%,> 100 µg/mL
"COC1=CC(=O)C[C@@H](C)[C@]12Oc1c(Cl)c(OC)cc(OCC3CC3)c1C2=O [Compound 04, 4 Position Cyclopropylmethyl Griseofulvin Derivative]",69.8%,> 100 µg/mL,26.2%,> 100 µg/mL,70.5%,17.85 ± 0.04 µg/mL,48%,> 100 µg/mL,50.7%,> 100 µg/mL,65.5%,> 50 µg/mL,41.4%,> 25 µg/mL
"COC1=CC(=O)C[C@@H](C)[C@]12Oc1c(Cl)c(OC)cc(OC3CCCC3)c1C2=O [Compound 09, 4 Position Cyclopentyl Griseofulvin Derivative]",63.1%,> 25 µg/mL,34.2%,> 100 µg/mL,45.9%,> 100 µg/mL,40.9%,> 100 µg/mL,59.7%,> 25 µg/mL,59.5%,> 25 µg/mL,31%,> 100 µg/mL
"C=CCOc1cc(OC)c(Cl)c2c1C(=O)[C@@]1(O2)C(OC)=CC(=O)C[C@H]1C [Compound 02, 4 Position Allyl Griseofulvin Derivative]",85.2%,3.93 ± 0.8 µg/mL,51.7%,> 50 µg/mL,77%,14.9 ± 5.66 µg/mL,70.1%,4.05 ± 0.46 µg/mL,56.9%,> 50 µg/mL,52.7%,> 50 µg/mL,49.1%,> 100 µg/mL
"COCOc1cc(OC)c(Cl)c2c1C(=O)[C@@]1(O2)C(OC)=CC(=O)C[C@H]1C [Compound 05, 4 Position Methoxymethyl Griseofulvin Derivative]",88.6%,31.6 ± 7.3 µg/mL,58.4%,> 25 µg/mL,75.4%,83.2 ± 14.5 µg/mL,71.7%,16.1 ± 1.3 µg/mL,66%,> 25 µg/mL,73.7%,81.4 ± 1.23 µg/mL,49.1%,> 50 µg/mL
"C#CCOc1cc(OC)c(Cl)c2c1C(=O)[C@@]1(O2)C(OC)=CC(=O)C[C@H]1C [Compound 01, 4 Position Propargyl Griseofulvin Derivative]",100%,2.84 ± 0.22 µg/mL,98%,1.35 ± 0.07 µg/mL,100%,1.32 ± 0.01 µg/mL,91.3%,0.06 ± 0.02 µg/mL,98.6%,2.04 ± 0.12 µg/mL,96.6%,1.84 ± 0.01 µg/mL,97.4%,1.28 µg/mL
"COC1=CC(=O)C[C@@H](C)[C@]12Oc1c(Cl)c(OC)cc(OCc3ccccc3F)c1C2=O [Compound 06, 4 Position 2-Fluorobenzyl Griseofulvin Derivative]",69.8%,> 25 µg/mL,18.1%,> 100 µg/mL,13.1%,> 100 µg/mL,75.6%,1.92 ± 0.19 µg/mL,55.6%,> 50 µg/mL,6.08%,> 100 µg/mL,3.45%,> 100 µg/mL
"CCCCOc1cc(OC)c(Cl)c2c1C(=O)[C@@]1(O2)C(OC)=CC(=O)C[C@H]1C [Compound 03, 4 Position Butyl Griseofulvin Derivative]",62.3%,> 25 µg/mL,31.8%,> 100 µg/mL,26.9%,> 100 µg/mL,68.4%,> 25 µg/mL,19.1%,> 100 µg/mL,29.1%,> 100 µg/mL,7.41%,> 100 µg/mL

# — patent US12692244B2, “Griseofulvin 4 position etherified derivatives and their application” (Yan'an University, priority 2023, dated 2026)
